What was measured:
COL1A2 [1] = assay: COL1A2 mRNA level in treated back skin of mice (fluorescent quantitative PCR); assay type: in vivo, C57BL/6 mice; details: aqueous solution 0.5 μM applied to hair-removed back skin once a day for 30 days, P=0.0178
Description: (§1) Sodium 4-[(1E)-2-[[(4-chlorophenyl)methyl]sulfonyl]alkyne]-benzoate was dissolved in water to prepare an aqueous solution of sodium 4-[(1E)-2-[[(4-chlorophenyl)methyl]sulfonyl]alkyne]-benzoate (i.e., an anti-aging preparation for skin). Six healthy C57BL/6 mice aged 6-8 weeks with similar body sizes were selected, and the hair on the backs of the mice was removed gently and harmlessly to expose a similar area of skin on the back of each mouse. The six mice were divided into two groups equally. […]
(§2) Experimental method: after continuously applying the same volume of aqueous solutions containing 0.5 μM of sodium 4-[(1E)-2-[[(4-chlorophenyl)methyl]sulfonyl]alkyne]-benzoate or pure water as a blank control to the backs of mice for 30 days, the mice were euthanized for cutting the skin from the treated areas. The Westernblot method was employed to detect the protein level of COL1A2, and the fluorescent quantitative PCR method was employed to detect the mRNA level of COL1A2.
Fluorescence quantitative PCR experiment was performed specifically as follows. Total RNA was extracted from skin tissues, and subjected to reverse transcription to obtain cDNA, which was then subjected to fluorescence quantitative PCR. After the end of reaction, an amplification curve and a melting curve of the fluorescent quantitative PCR were confirmed, with GAPDH as an internal reference gene. […]

MMP-13 = MMP-13 mRNA level in treated back skin of mice (fluorescent quantitative PCR); assay type: in vivo, C57BL/6 mice; details: aqueous solution 0.5 M (so in the source) applied to hair-removed back skin once a day for 30 days, P=0.0171
Description: as §1
Experimental method: after continuously applying an aqueous solution containing 0.5 M of sodium 4-[(1E)-2-[[(4-chlorophenyl)methyl]sulfonyl]alkyne]-benzoate or pure water as a blank control to the backs of mice for 30 days, the mice were euthanized for cutting the skin from the treated areas, and the fluorescent quantitative PCR method was used for detecting the mRNA level of MMP-13 in skin tissue. Specifically, total RNA was extracted from skin tissues, and subjected to reverse transcription to obtain cDNA, which was then subjected to fluorescence quantitative PCR. After the end of reaction, an amplification curve and a melting curve of the fluorescent quantitative PCR were confirmed, with GAPDH as an internal reference gene. The results were analyzed using the internationally accepted 2^−ΔΔCt method. […]

dermal thickness in skin = assay: Dermal thickness in treated back skin of mice (HE staining); assay type: in vivo, C57BL/6 mice
Description: (§3) Sodium 4-[(1E)-2-[[(4-chlorophenyl)methyl]sulfonyl]alkyne]-benzoate was dissolved in water to prepare an aqueous solution of sodium 4-[(1E)-2-[[(4-chlorophenyl)methyl]sulfonyl]alkyne]-benzoate (i.e., an anti-aging preparation for skin). Six healthy C57BL/6 mice aged 6-8 weeks with similar body sizes were selected, and the hair on the backs of the mice was removed gently and harmlessly to expose a similar area of skin on the back of each mouse. The six mice were divided into two groups equally. The same volume of pure water and aqueous solutions containing […] sodium 4-[(1E)-2-[[(4-chlorophenyl)methyl]sulfonyl]alkyne]-benzoate were applied, respectively, to the hair-removed skin on the backs of the mice once a day for 30 consecutive days.
Experimental method: after continuously applying an aqueous solution containing 0.5 μM of sodium 4-[(1E)-2-[[(4-chlorophenyl)methyl]sulfonyl]alkyne]-benzoate or pure water as a blank control to the backs of mice for 30 days, the mice were euthanized for cutting the skin from the treated areas, and hematoxylin-eosin (HE) staining method was used for detecting the dermal thickness in the skin. Specifically, the tissues were fixed, dehydrated with a sucrose solution, embedded in OCT, sliced, stained with hematoxylin, counterstained blue with tap water, stained with eosin, dehydrated and cleared, and then mounted.

COL1A2 [2] = assay: COL1A2 expression in mouse skin fibroblasts by fluorescent quantitative PCR; assay type: cell-based, C57BL/6 mice; details: for expression of COL1A2 in the fibroblasts relative to blank control group: mouse skin fibroblasts
Description: (§4) Experimental method: skin tissues were taken from the backs of newborn C57BL/6 mice, and fibroblasts obtained from mice were isolated and purified. […] The third-generation of fibroblasts were taken for experiments.
Experimental method: the COL1A2 level was detected using fluorescent quantitative polymerase chain reaction (PCR) method. The experiment was divided into two major groups: a blank control group and a sodium 4-[(1E)-2-[[(4-chlorophenyl)methyl]sulfonyl]alkyne]-benzoate treatment group. In the blank control group, the fibroblasts were cultured in a normal medium; and in the sodium 4-[(1E)-2-[[(4-chlorophenyl)methyl]sulfonyl]alkyne]-benzoate treatment group, the fibroblasts were treated with five media containing different concentrations (0.1 μM, […], 1 μM, 3 μM, and 6 μM) of sodium 4-[(1E)-2-[[(4-chlorophenyl)methyl]sulfonyl]alkyne]-benzoate (i.e., normal medium added with sodium 4-[(1E)-2-[[(4-chlorophenyl)methyl]sulfonyl]alkyne]-benzoate at the aforementioned concentrations) for 24 h. The specific process was as follows. The third-generation of fibroblasts was uniformly inoculated into a six-well plate. In the blank control group, the fibroblasts were cultured in the normal medium, and in the sodium 4-[(1E)-2-[[(4-chlorophenyl)methyl]sulfonyl]alkyne]-benzoate treatment group, the fibroblasts were cultured in media containing sodium 4-[(1E)-2-[[(4-chlorophenyl)methyl]sulfonyl]alkyne]-benzoate at the corresponding concentrations. After 24 h of culture, total RNA was extracted from the fibroblasts and subjected to reverse transcription to obtain complementary deoxyribonucleic acid (cDNA), which was then subjected to fluorescent quantitative PCR. After the end of reaction, an amplification curve and a melting curve of the fluorescent quantitative PCR were confirmed, with glyceraldehyde-3-phosphate dehydrogenase (GAPDH) as an internal reference gene. The results were analyzed using the internationally accepted 2^−ΔΔCt method.
Total RNA of fibroblasts was extracted using standard laboratory RNA extraction method and stored at −80° C. for later use. The extracted total RNA of fibroblasts was used as a template to synthesize cDNA by using the standard laboratory method, and the synthesized cDNA was stored at −20° C. for later use.
Fluorescent quantitative PCR system: 10 μL of qPCR SYBR Green Master Mix, 2 μL of 2 μM upstream primer, 2 μL of 2 μM downstream primer, and 1000 ng of cDNA template, a total volume of 20 μL by supplementing with diethyl pyrocarbonate (DEPC)-treated water.
Reaction conditions: pre-denaturation at 95° C. for 5 min, followed by 40 cycles of 10 sec at 95° C., 20 sec at 52.9° C., and 20 sec at 72° C. After the end of reaction, the melting curve was analyzed.
Experimental method: the COL1A2 level was detected using fluorescent quantitative PCR method. The experiment was divided into two major groups: a blank control group and a sodium 4-[(1E)-2-[[(4-chlorophenyl)methyl]sulfonyl]alkyne]-benzoate treatment group. In the blank control group, the fibroblasts were cultured in a normal medium; and in the sodium 4-[(1E)-2-[[(4-chlorophenyl)methyl]sulfonyl]alkyne]-benzoate treatment group, the fibroblasts were cultured in a medium containing 0.5 μM of sodium 4-[(1E)-2-[[(4-chlorophenyl)methyl]sulfonyl]alkyne]-benzoate, with incubation times of 24 h, 48 h, and 72 h. The specific process was as follows. The third-generation of fibroblasts was uniformly inoculated into a six-well plate. In the blank control group, the fibroblasts were cultured in a normal medium, and in the sodium 4-[(1E)-2-[[(4-chlorophenyl)methyl]sulfonyl]alkyne]-benzoate treatment group, the fibroblasts were cultured in a medium containing 0.5 μM of sodium 4-[(1E)-2-[[(4-chlorophenyl)methyl]sulfonyl]alkyne]-benzoate (i.e., normal medium containing 0.5μ M of sodium 4-[(1E)-2-[[(4-chlorophenyl)methyl]sulfonyl]alkyne]-benzoate). […]

fibroblasts = assay: Cell viability of fibroblasts after administration (status photographed under a microscope); assay type: cell-based, C57BL/6 mice; details: 0.5 μM, 24 h and 48 h
Description: as §4
Experimental method: the third-generation of fibroblasts was uniformly inoculated into a six-well plate. In the blank control group, the fibroblasts were cultured in a normal medium, and in the sodium 4-[(1E)-2-[[(4-chlorophenyl)methyl]sulfonyl]alkyne]-benzoate treatment group, the fibroblasts were cultured in a medium containing 0.5 μM of sodium 4-[(1E)-2-[[(4-chlorophenyl)methyl]sulfonyl]alkyne]-benzoate (i.e., normal medium containing 0.5 μM of sodium 4-[(1E)-2-[[(4-chlorophenyl)methyl]sulfonyl]alkyne]-benzoate). After culturing for 24 h and 48 h, respectively, the status of fibroblasts was photographed under a microscope.

[3] = test system: collagen fiber content in skin; assay: Collagen fiber content in treated back skin of mice (Masson staining); assay type: in vivo, C57BL/6 mice
Description: as §3
Experimental method: after continuously applying an aqueous solution containing 0.5 μM of sodium 4-[(1E)-2-[[(4-chlorophenyl)methyl]sulfonyl]alkyne]-benzoate or pure water as a blank control to the backs of mice for 30 days, the mice were euthanized for cutting the skin from the treated areas, and the Masson staining method was used for detecting the collagen fiber content in the skin. […]

COL1A2 [4] = assay: COL1A2 protein level in treated back skin of mice (Westernblot); assay type: in vivo, C57BL/6 mice; details: aqueous solution 0.5 μM applied to hair-removed back skin once a day for 30 days, P=0.0378
Description: as §1, §2
The specific process for the Westernblot experiment was as follows. […] After fluorescent secondary antibodies were incubated, the samples were visualized using an infrared fluorescence scanning imaging system. […]

[5] = same effect verification as Examples 1 and 2

Structure (SMILES) | mRNA level of COL1A2 in skin, increase compared to pure water blank control group (COL1A2 [1]) [times] | mRNA level of MMP-13 in skin, decrease compared to pure water blank control group (MMP-13) [times] | dermal thickness in the skin, increase compared to pure water blank control group (dermal thickness in skin; aqueous solution 0.5 μM applied to hair-removed back skin once a day for 30 days, P=0.0004) [times] | expression of COL1A2 in the fibroblasts relative to blank control group (COL1A2 [2]; 0.5 μM, 24 h, P=0.0003) [times] | expression of COL1A2 in fibroblasts with extension of incubation time (COL1A2 [2]; 0.5 μM, incubation time from 24 h to 72 h) | expression of COL1A2 in fibroblasts compared to the blank control group (COL1A2 [2]; 0.5 μM, incubation time of 72 h) | expression of COL1A2 in the fibroblasts relative to blank control group (COL1A2 [2]; 1 μM, 24 h, P<0.0001) [times] | expression of COL1A2 in the fibroblasts (COL1A2 [2]; any other concentrations (0.1 μM, 3 μM, 6 μM), 24 h) | viability / status of fibroblasts (fibroblasts) | collagen fiber content in the skin, increase compared to pure water blank control group ([3]; aqueous solution 0.5 μM applied to hair-removed back skin once a day for 30 days, P=0.0010) [times] | protein level of COL1A2 in skin, increase compared to pure water blank control group (COL1A2 [4]) [times] | increasing the dermal thickness in the skin, compared with the sodium salt (dermal thickness in skin; [5]) | increasing the expression of type I collagen (COL1A2) in cells, compared with the sodium salt (COL1A2 [2]; [5]) | increasing the collagen fiber content in the skin, compared with the sodium salt [3, 5]
O=C([O-])c1ccc(/C=C/S(=O)(=O)Cc2ccc(Cl)cc2)cc1.[Na+] | 2.681 | 0.5124 | 2.9101 | 1.613 | decreases | no difference | 1.173 | cannot increase the expression of COL1A2 | no adverse effects on viability of fibroblasts | 3.3904 | 4.024 | – | – | –
O=C(O)c1ccc(/C=C/S(=O)(=O)Cc2ccc(Cl)cc2)cc1 | – | – | – | – | – | – | – | – | – | – | – | equivalent effects | equivalent effects | equivalent effects

Source: patent US12251458B1, “Anti-aging preparation for skin and application thereof” (South China Normal University, priority 2023, dated 2025)
